Where two headings read alike, the source gives them in different places.
Experiments:
[1] = molecular target: T1, recombinant PfSTART1(WT) (I149-V394) (Plasmodium falciparum, UniProt Q8I298); assay: Isothermal titration calorimetry; format: binding; conditions: for Differential Power DP_Y / ΔH NDH_Y: PfSTART(WT), ITC replicate data
T1 construct: START domain alone (I149-V394 from PF3D7_0104200); 8xHis tag (N); TEV protease cleavage site (N); made in house; host or cells: Sf21 insect cells (baculovirus)
T1 sequence (Q8I298 entry or part of it): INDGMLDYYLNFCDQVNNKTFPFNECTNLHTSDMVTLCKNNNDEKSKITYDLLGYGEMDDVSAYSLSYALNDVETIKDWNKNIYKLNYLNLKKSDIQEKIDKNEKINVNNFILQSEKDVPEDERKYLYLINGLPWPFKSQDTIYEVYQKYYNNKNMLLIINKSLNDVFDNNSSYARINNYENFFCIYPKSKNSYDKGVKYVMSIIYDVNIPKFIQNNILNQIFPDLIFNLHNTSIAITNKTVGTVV
Text: Codon optimised (Spodoptera frugiperda, Sf) START domain alone (I149-V394 from PF3D7_0104200) was synthesised by Integrated DNA Technologies and cloned into a modified baculovirus transfer vector (pAcGP67-A) with a N-terminal GP67-signal sequence, 8xHis tag, and TEV protease cleavage site. Recombinant baculovirus was generated via the flashBACTM Baculovirus Expression System using Sf21 cells (Life Technologies), amplified to reach a third passage viral stock, and 1.5% used to infect Sf21 for protein expression. After incubation for three days at 28 °C, media containing secreted protein was harvested by centrifugation and supplemented with 50 mM Tris pH 7.5, 20 mM MgCl2, 100 mM NaCl, and 10-20 mM imidazole. The supplemented protein sample was purified by nickel affinity chromatography (HisTrap Excel 5 mL, Cytiva), and eluted with 20 mM Tris pH 7.5, 500 mM NaCl, 300-500 mM imidazole. Eluted fractions were further purified using size-exclusion chromatography (Superdex S75 16/600 or Superdex 10/300, Cytiva) with the column pre-equilibrated with 20 mM HEPES pH 7.5, 150 mM NaCl, and peak-containing fractions concentrated and stored at -80 °C until required. If required, prior to ITC, a second size-exclusion chromatography step was performed to remove soluble aggregates.
ITC experiments were performed on a MicroCal PEAQ-ITC calorimeter at 25 °C, with a stirring speed of 750 rpm and a reference power of 5 μcal/sec. 500 μM M-833 series inhibitor solutions were diluted to 10 μM in 50 mM NaPO4^-3 (pH 7.4), 150 mM NaCl with a final DMSO concentration of 2% (v/v) (cell sample). PfSTART1 protein was dialysed extensively against 50 mM NaPO4^-3 (pH 7.4), 150 mM NaCl, before diluting to 90 μM in the same buffer with 2% (v/v) DMSO (syringe sample). The first injection was 0.4 μL over a 0.8 s duration, and the remaining 19 injections were 2 μL of 4 s duration, with 150 s injection spacing. Data were collected and analysed using the PEAQ-ITC software (MicroCal) and fit by a single site binding model. A fitted offset (constant control heat) was also applied to the integrated heat.

[2] = system: PopE-F10 M-833 resistant clone (PfSTART1 N330K); assay: Growth inhibition assay (72 h, LDH activity); format: cell-based, Plasmodium falciparum; parameters: sample/DMSO: scale not given here; conditions: for EC50: Plasmodium falciparum, 72 h; for EC50 / Fold change compared to 3D7: Supplementary Table 1; for EC50 / resistance of the line compared with 3D7: PopE-F10 (N330K); for resistance of the line compared with 3D7: Fig 4B; for Fold change compared to 3D7: EC50 on PopE-F10 vs 3D7
Method: The drug was then removed, and parasites were allowed to recover. Another cycle of drug treatment (3 μM M-833) was then resumed. The resistant lines were cloned out by limiting dilution (diluting the culture into a 96-well plate to achieve an average of ~0.3 parasites per well), prior to growth inhibition assays and genomic DNA (gDNA) extraction (DNeasy Blood and Tissue kit (Qiagen)[18].
Parasite growth assays with inhibitory compounds were performed as per[11] and are fully described in the Supplementary Information. […]
Growth inhibition assays. Synchronised ring-stage parasites (0.3-0.6% parasitemia, 2% haematocrit) were grown for 72 h in a serial-dilution of the compound under […]
and compound 4. Note that M-833 was first purchased from MolPort (MolPort -002-267-916) then made in-house at WEHI: the differences observed in EC50s across experiments are attributed to the different batches of M -833. For some experiments, 0, 0.25 or 2.5 mM of glucosamine (GlcN) was also added. Experiments were set up in technical duplicates or triplicates. Following a freeze -thaw cycle, lactate dehydrogenase (LDH) activity was assessed as an indicator of parasite growt h 5. 30 μL of parasite culture was incubated for 30 min in the dark with 75 μL Malstat mixture (0.1 M Tris pH 9.0, 20 g/L lactic acid, pH 7.5, 0.2% Triton-X100, 0.5 g/L acetylpyridine adenine dinucleotide (APAD, Sigma), 200 μg/mL nitroblue tetrazolium (NBT; Sigma), 1 μg/mL phenozine ethosulfate (PES; Sigma)). Absorbance was then measured at 650 nm, transformed using the formula below, plotted against the logarithm of the concentrations, and a non-linear regression (log(inhibitor) vs. response, variable slope) was calculated using GraphPad Prism to assess the half-inhibitory […]
Growth inhibition % = (1 − average(sample)− average(uRBC)) ∗ 100 […]
The DMSO samples were also used to assess growth of parasite in the presence of 0.25 and 2.5 mM GlcN (normalised by DMSO in 0 mM GlcN). […]

CC(C)(Nc1ccc(Cl)c(S(=O)(=O)N2CCOCC2)c1)C(=O)Nc1ccc(F)c(Cl)c1 [W-991]
Kd ([1]; ITC, 25 °C, 90 µM PfSTART1 titrated into 10 µM compound, n = 2, ± SD): 10 ± 7 nM
ΔH ([1]; ITC, 25 °C, n = 2, ± SD): -12.8 ± 0.1 kcal/mol
−TΔS ([1]; ITC, 25 °C, n = 2, ± SD): 1.8 ± 0.6 kcal/mol
Differential Power DP_Y ([1]; DP_X 0.083333): -0.000146
Differential Power DP_Y ([1]; DP_X 0.1): 9.8e-5
ΔH NDH_Y ([1]; NDH_X 0.104703): -13.8427
ΔH NDH_Y ([1]; NDH_X 0.192876): -12.6755
EC50 ([2]; read-out: EC50): > 200 nM
resistance of the line compared with 3D7 [2]: highly resistant
(av-uRBC) / (DMSO-uRBC) x100 ([2]; PopE-F10, 0.0762079 nM, biological replicate 1): 96.1179
(av-uRBC) / (DMSO-uRBC) x100 ([2]; PopE-F10, 0.0762079 nM, biological replicate 2): 104.725
(av-uRBC) / (DMSO-uRBC) x100 ([2]; PopE-F10, 0.0762079 nM, biological replicate 3): 92.7129
(av-uRBC) / (DMSO-uRBC) x100 ([2]; PopE-F10, 0.228624 nM, biological replicate 1): 102.983
(av-uRBC) / (DMSO-uRBC) x100 ([2]; PopE-F10, 0.228624 nM, biological replicate 2): 105.368
(av-uRBC) / (DMSO-uRBC) x100 ([2]; PopE-F10, 0.228624 nM, biological replicate 3): 109.575
(av-uRBC) / (DMSO-uRBC) x100 ([2]; PopE-F10, 0.685871 nM, biological replicate 1): 97.996
(av-uRBC) / (DMSO-uRBC) x100 ([2]; PopE-F10, 0.685871 nM, biological replicate 2): 105.748
(av-uRBC) / (DMSO-uRBC) x100 ([2]; PopE-F10, 0.685871 nM, biological replicate 3): 95.4244
(av-uRBC) / (DMSO-uRBC) x100 ([2]; PopE-F10, 2.05761 nM, biological replicate 1): 96.037
(av-uRBC) / (DMSO-uRBC) x100 ([2]; PopE-F10, 2.05761 nM, biological replicate 2): 105.199
(av-uRBC) / (DMSO-uRBC) x100 ([2]; PopE-F10, 2.05761 nM, biological replicate 3): 105.366
(av-uRBC) / (DMSO-uRBC) x100 ([2]; PopE-F10, 6.17284 nM, biological replicate 1): 97.8882
(av-uRBC) / (DMSO-uRBC) x100 ([2]; PopE-F10, 6.17284 nM, biological replicate 2): 105.604
(av-uRBC) / (DMSO-uRBC) x100 ([2]; PopE-F10, 6.17284 nM, biological replicate 3): 97.9523
(av-uRBC) / (DMSO-uRBC) x100 ([2]; PopE-F10, 18.5185 nM, biological replicate 1): 96.9806
(av-uRBC) / (DMSO-uRBC) x100 ([2]; PopE-F10, 18.5185 nM, biological replicate 2): 104.615
(av-uRBC) / (DMSO-uRBC) x100 ([2]; PopE-F10, 18.5185 nM, biological replicate 3): 86.3579
(av-uRBC) / (DMSO-uRBC) x100 ([2]; PopE-F10, 55.5556 nM, biological replicate 1): 92.6042
(av-uRBC) / (DMSO-uRBC) x100 ([2]; PopE-F10, 55.5556 nM, biological replicate 2): 99.4928
(av-uRBC) / (DMSO-uRBC) x100 ([2]; PopE-F10, 55.5556 nM, biological replicate 3): 87.996
(av-uRBC) / (DMSO-uRBC) x100 ([2]; PopE-F10, 166.667 nM, biological replicate 1): 76.4288
(av-uRBC) / (DMSO-uRBC) x100 ([2]; PopE-F10, 166.667 nM, biological replicate 2): 88.6391
(av-uRBC) / (DMSO-uRBC) x100 ([2]; PopE-F10, 166.667 nM, biological replicate 3): 66.2195
(av-uRBC) / (DMSO-uRBC) x100 ([2]; PopE-F10, 500 nM, biological replicate 1): 33.5999
(av-uRBC) / (DMSO-uRBC) x100 ([2]; PopE-F10, 500 nM, biological replicate 2): 49.6703
(av-uRBC) / (DMSO-uRBC) x100 ([2]; PopE-F10, 500 nM, biological replicate 3): 27.1431
Fold change compared to 3D7 [2]: > 278 fold

CN(C(=O)C(C)(C)Nc1ccc(Cl)c(S(=O)(=O)N2CCOCC2)c1)c1ccc(F)c(Cl)c1 [compound 4]
interaction with PfSTART1(WT) ([1]; ITC): did not interact
EC50 [2]: 13800 nM
resistance of the line compared with 3D7 [2]: No change in EC50
sample/DMSO ([2]; PopE-F10, 0.00152416 uM, biological replicate 3): -10.997
sample/DMSO ([2]; PopE-F10, 0.00304832 uM, biological replicate 1): -14.4828
sample/DMSO ([2]; PopE-F10, 0.00457247 uM, biological replicate 3): -14.249
sample/DMSO ([2]; PopE-F10, 0.00914495 uM, biological replicate 1): -25.5172
sample/DMSO ([2]; PopE-F10, 0.0137174 uM, biological replicate 3): -22.0582
sample/DMSO ([2]; PopE-F10, 0.0274348 uM, biological replicate 1): -44.0394
sample/DMSO ([2]; PopE-F10, 0.0411523 uM, biological replicate 3): -25.9307
sample/DMSO ([2]; PopE-F10, 0.078125 uM, biological replicate 2): -21.3563
sample/DMSO ([2]; PopE-F10, 0.0823045 uM, biological replicate 1): -49.1626
sample/DMSO ([2]; PopE-F10, 0.123457 uM, biological replicate 3): -32.7771
sample/DMSO ([2]; PopE-F10, 0.15625 uM, biological replicate 2): -19.0708
sample/DMSO ([2]; PopE-F10, 0.246914 uM, biological replicate 1): -58.8177
sample/DMSO ([2]; PopE-F10, 0.3125 uM, biological replicate 2): -21.7123
sample/DMSO ([2]; PopE-F10, 0.37037 uM, biological replicate 3): -39.4309
sample/DMSO ([2]; PopE-F10, 0.625 uM, biological replicate 2): -9.966
sample/DMSO ([2]; PopE-F10, 0.740741 uM, biological replicate 1): -40.7882
sample/DMSO ([2]; PopE-F10, 1.11111 uM, biological replicate 3): -43.6671
sample/DMSO ([2]; PopE-F10, 1.25 uM, biological replicate 2): -1.293
sample/DMSO ([2]; PopE-F10, 2.22222 uM, biological replicate 1): -40.4926
sample/DMSO ([2]; PopE-F10, 2.5 uM, biological replicate 2): 7.269
sample/DMSO ([2]; PopE-F10, 3.33333 uM, biological replicate 3): -37.5053
sample/DMSO ([2]; PopE-F10, 5 uM, biological replicate 2): 28.3814
sample/DMSO ([2]; PopE-F10, 6.66667 uM, biological replicate 1): -11.4286
sample/DMSO ([2]; PopE-F10, 10 uM, biological replicate 2): 46.5155
sample/DMSO ([2]; PopE-F10, 10 uM, biological replicate 3): 5.884
sample/DMSO ([2]; PopE-F10, 20 uM, biological replicate 1): 42.9557
sample/DMSO ([2]; PopE-F10, 20 uM, biological replicate 2): 83.0461
Fold change compared to 3D7 [2]: 1.4 fold
